Results taken from US6916808B2, “2-thio-4h-3, 1-benzoxazin-4-one derivatives for use as enzyme inhibitors” (Alizyme Therapeutics Limited, priority 2000, dated 2005).

Biological target: T1, porcine pancreatic lipase (Sus scrofa, UniProt P00591)
T1 sequence (P00591 1-450): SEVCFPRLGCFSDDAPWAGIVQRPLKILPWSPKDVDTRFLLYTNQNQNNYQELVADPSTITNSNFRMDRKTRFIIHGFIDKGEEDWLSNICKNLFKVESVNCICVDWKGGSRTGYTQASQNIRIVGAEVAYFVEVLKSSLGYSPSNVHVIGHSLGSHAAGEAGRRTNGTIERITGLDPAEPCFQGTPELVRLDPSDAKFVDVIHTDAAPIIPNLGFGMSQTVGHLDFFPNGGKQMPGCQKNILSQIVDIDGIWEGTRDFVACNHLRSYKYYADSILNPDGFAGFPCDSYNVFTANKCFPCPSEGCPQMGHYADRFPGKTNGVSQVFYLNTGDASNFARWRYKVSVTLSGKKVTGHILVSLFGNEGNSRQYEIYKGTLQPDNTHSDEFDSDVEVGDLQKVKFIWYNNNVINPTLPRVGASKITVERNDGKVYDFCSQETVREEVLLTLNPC
Test: Lipase enzyme activity, NaOH titration method (lipid micelles)
Type: biochemical
Details: NaOH titration assay; system containing lipid micelles
Protocol: Measurement of Lipase Enzyme Activity Using a NaOH Titration Method
The inhibitory activity of the selected compounds to pancreatic lipase was measured in the assay described in Pasquier et al; 1996, Vol 7, Nutritional Biochemistry, 293-302.
Log dose/response curves were constructed using a range of inhibitor concentrations.
Selected benzoxazinone compounds were tested in the NaOH titration assay. In this assay, the activity of porcine pancreatic lipase in a system containing lipid micelles is recorded. These conditions are therefore similar to those encountered in the gastrointestinal tract.

`Cc1ccc2nc(Sc3ccccc3)oc(=O)c2c1` [Compound 4, 6-Methyl-2-phenylthio-4H-3,1-benzoxazin-4-one] was tested, and the IC50 was < 1000 nM.

In the case of `Cc1ccc2nc(SCCCCCCCCCCc3ccccc3)oc(=O)c2c1` [Compound 5, 6-Methyl-2-(10-phenyldecyl)-thio-4H-3,1-benzoxazin-4-one], the IC50 is reported as < 1000 nM.
